In ChEMBL document CHEMBL4665688, “Discovery of AB680: A Potent and Selective Inhibitor of CD73” (J Med Chem, 2020):

How the values were obtained:
[1] = Volume of distribution at steady state in dog at 0.5 mg/kg, iv; assay type: ADME, organism-based, Canis lupus familiaris; details: in vivo, read-out: Vdss
[2] = Chemical stability of the compound in acidic condition; assay type: physicochemical
[3] = Volume of distribution at steady state in Sprague-Dawley rat at 0.5 mg/kg, iv; assay type: ADME, organism-based; details: in vivo, read-out: Vdss
[4] = Cmax in human at 25 mg, iv administered as single infusion for 30 to 60 mins; assay type: ADME, organism-based; parameters: route intravenous, dose 25 mg, time 30-60; details: in vivo
Cytochrome P450 2D6 [5] = molecular target: T1, Cytochrome P450 2D6 (Homo sapiens, UniProt P10635); experiment: Inhibition of CYP2D6 in human liver microsomes using dextromethorphan as substrate incubated for 5 to 20 mins in presence of NADPH by LC-MS/MS analysis; assay type: ADME; details: time 5-20 min
T1 sequence (P10635 whole entry): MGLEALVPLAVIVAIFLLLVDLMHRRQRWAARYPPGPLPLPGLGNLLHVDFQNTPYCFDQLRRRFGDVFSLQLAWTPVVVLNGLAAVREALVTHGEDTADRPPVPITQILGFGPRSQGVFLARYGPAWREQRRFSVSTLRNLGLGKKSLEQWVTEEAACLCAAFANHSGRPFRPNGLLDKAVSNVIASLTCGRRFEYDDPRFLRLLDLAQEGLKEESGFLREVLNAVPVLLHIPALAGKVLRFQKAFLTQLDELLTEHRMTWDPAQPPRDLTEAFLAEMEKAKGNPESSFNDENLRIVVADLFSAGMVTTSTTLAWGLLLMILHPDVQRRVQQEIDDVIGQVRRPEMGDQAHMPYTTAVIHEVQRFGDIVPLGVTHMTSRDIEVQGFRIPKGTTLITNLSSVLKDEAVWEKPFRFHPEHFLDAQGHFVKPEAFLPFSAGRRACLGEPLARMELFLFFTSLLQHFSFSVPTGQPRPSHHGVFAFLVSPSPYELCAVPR

[6] = Fraction unbound in monkey plasma; assay type: ADME, cell-free, Macaca mulatta; details: rhesus monkey
Cytochrome P450 1A2 [7] = molecular target: T2, Cytochrome P450 1A2 (Homo sapiens, UniProt P05177); experiment: Time dependent inhibition of CYP1A2 in human liver microsomes using phenacetin as substrate in presence of NADPH by LC-MS/MS analysis; assay type: ADME
T2 sequence (P05177 whole entry): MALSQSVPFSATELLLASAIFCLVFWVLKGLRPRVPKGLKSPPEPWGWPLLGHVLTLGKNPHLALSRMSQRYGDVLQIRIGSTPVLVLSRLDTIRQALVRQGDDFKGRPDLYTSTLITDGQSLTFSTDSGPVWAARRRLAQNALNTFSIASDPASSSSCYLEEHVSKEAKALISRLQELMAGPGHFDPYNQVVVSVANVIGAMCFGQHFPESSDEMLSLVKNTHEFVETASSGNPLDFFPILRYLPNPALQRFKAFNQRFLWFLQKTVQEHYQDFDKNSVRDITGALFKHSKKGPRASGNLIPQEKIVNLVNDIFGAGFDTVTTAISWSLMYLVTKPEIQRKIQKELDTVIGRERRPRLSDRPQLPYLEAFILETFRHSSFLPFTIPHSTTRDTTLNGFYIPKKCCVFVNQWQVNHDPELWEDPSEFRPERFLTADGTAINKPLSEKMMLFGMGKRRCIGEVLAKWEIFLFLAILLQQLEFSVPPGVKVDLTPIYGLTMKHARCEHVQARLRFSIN

Cytochrome P450 1A2 [8] = molecular target: T2, Cytochrome P450 1A2; experiment: Inhibition of CYP1A2 in human liver microsomes using phenacetin as substrate incubated for 5 to 20 mins in presence of NADPH by LC-MS/MS analysis; assay type: ADME; details: time 5-20 min; read-out: INH
[9] = molecular target: Voltage-gated inwardly rectifying potassium channel KCNH2 (Homo sapiens, UniProt Q12809); experiment: Inhibition of human ERG
Voltage-gated inwardly rectifying potassium channel KCNH2, sequence (Q12809 whole entry): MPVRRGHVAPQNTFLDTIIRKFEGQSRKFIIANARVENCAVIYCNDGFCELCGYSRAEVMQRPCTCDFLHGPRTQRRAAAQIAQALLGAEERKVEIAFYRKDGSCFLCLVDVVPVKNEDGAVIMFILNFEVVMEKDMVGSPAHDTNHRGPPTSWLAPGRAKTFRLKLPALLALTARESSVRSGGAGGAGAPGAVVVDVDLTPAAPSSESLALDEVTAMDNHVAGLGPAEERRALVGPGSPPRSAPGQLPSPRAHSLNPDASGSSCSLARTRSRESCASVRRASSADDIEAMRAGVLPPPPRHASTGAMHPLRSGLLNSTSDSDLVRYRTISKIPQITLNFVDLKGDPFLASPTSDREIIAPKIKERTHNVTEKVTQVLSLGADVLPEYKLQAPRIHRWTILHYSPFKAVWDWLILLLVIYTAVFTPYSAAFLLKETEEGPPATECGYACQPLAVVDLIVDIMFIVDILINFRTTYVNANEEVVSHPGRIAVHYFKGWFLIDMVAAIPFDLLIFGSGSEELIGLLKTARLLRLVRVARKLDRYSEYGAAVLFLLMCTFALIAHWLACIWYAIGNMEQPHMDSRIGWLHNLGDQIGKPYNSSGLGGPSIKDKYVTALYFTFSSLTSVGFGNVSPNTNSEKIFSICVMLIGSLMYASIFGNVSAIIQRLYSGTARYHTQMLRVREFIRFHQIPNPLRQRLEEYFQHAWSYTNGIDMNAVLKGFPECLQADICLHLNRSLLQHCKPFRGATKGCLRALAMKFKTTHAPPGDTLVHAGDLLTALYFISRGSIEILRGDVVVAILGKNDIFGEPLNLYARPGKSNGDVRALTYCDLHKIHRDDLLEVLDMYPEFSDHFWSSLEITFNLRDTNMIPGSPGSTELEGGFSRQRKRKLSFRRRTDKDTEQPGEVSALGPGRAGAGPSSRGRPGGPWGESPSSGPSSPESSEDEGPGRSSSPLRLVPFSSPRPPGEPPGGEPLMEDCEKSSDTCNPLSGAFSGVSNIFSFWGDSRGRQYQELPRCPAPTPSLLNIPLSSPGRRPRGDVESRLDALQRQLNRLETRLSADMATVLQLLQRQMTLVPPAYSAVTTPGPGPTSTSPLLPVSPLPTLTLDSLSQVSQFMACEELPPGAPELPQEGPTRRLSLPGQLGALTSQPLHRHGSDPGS

[10] = Chemical stability of the compound in basic condition; assay type: physicochemical
Cytochrome P450 2D6 [11] = molecular target: T1, Cytochrome P450 2D6; experiment: Time dependent inhibition of CYP2D6 in human liver microsomes using dextromethorphan as substrate in presence of NADPH by LC-MS/MS analysis; assay type: ADME
[12] = Genotoxicity in Salmonella typhimurium by Ames test; assay type: toxicity; details: salmonella enterica subsp. enterica serovar typhimurium
[13] = Fraction unbound in Sprague-Dawley rat plasma; assay type: ADME, cell-free
Cytochrome P450 2C9 = Cytochrome P450 2C9 (Homo sapiens, UniProt P11712); experiment: Inhibition of CYP2C9 in human liver microsomes using diclofenac as substrate incubated for 5 to 20 mins in presence of NADPH by LC-MS/MS analysis; assay type: ADME; details: time 5-20 min
Cytochrome P450 2C9, sequence (P11712 whole entry): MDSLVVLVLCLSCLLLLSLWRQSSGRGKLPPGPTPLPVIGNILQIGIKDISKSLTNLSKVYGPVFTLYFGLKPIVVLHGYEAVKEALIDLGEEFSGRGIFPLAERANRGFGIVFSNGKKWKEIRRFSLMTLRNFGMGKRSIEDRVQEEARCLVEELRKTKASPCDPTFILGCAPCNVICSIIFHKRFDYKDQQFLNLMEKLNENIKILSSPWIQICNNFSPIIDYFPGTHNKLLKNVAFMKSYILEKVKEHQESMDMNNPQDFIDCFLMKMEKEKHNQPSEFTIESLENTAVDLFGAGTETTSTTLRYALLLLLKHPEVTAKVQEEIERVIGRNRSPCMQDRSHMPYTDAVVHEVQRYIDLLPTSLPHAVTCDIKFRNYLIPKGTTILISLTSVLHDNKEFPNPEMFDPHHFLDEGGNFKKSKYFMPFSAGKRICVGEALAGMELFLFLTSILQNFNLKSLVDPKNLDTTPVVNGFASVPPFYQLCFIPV

[14] = Fraction unbound in mouse plasma; assay type: ADME, cell-free; parameters: dose or concentration left out as unconfirmed
[15] = molecular target: T3, Ectonucleoside triphosphate diphosphohydrolase 1 (Homo sapiens, UniProt P49961); experiment: Inhibition of CD39 (unknown origin)
T3 sequence (P49961 whole entry): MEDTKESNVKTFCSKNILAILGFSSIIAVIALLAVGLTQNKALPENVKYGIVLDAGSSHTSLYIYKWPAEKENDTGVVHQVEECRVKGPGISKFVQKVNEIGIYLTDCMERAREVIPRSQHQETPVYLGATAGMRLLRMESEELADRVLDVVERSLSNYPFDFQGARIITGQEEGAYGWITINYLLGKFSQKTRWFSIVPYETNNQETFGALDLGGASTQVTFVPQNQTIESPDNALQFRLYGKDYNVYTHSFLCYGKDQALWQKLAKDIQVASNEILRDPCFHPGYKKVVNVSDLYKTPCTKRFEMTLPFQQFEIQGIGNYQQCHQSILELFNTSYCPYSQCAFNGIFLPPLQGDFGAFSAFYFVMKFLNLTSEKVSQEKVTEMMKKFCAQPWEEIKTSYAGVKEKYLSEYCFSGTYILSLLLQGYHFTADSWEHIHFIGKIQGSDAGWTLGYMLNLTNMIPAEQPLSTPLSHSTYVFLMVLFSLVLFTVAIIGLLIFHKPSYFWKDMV

[16] = Volume of distribution at steady state in human at 16 mg, iv administered as single infusion for 30 to 60 mins; assay type: ADME, organism-based; details: in vivo, time 30-60 min, read-out: Vdss
Cytochrome P450 3A4 [17] = molecular target: T4, Cytochrome P450 3A4 (Homo sapiens, UniProt P08684); experiment: Time dependent inhibition of CYP3A4 in human liver microsomes using midazolam as substrate in presence of NADPH by LC-MS/MS analysis; assay type: ADME
T4 sequence (P08684 whole entry): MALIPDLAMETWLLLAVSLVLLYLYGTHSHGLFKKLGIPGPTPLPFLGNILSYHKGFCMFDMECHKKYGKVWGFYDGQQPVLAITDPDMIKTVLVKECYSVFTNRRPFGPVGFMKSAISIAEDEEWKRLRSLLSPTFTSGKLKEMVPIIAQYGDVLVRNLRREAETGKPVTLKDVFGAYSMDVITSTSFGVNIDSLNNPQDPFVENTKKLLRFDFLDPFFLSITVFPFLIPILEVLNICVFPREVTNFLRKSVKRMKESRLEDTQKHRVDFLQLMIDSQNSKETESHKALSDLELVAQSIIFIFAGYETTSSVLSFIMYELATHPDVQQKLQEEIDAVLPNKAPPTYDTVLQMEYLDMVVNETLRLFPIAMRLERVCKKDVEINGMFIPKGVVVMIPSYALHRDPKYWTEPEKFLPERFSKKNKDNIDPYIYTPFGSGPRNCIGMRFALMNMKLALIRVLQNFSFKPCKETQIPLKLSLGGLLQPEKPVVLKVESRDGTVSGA

Cytochrome P450 3A4 [18] = molecular target: T4, Cytochrome P450 3A4; experiment: Induction of CYP3A4 (unknown origin) assessed as effect on CYP3A4 mRNA expression; assay type: ADME
Cytochrome P450 2B6 = molecular target: T5, Cytochrome P450 2B6 (Homo sapiens, UniProt P20813); experiment: Induction of CYP2B6 (unknown origin) assessed as effect on CYP2B6 mRNA expression; assay type: ADME
T5 sequence (P20813 whole entry): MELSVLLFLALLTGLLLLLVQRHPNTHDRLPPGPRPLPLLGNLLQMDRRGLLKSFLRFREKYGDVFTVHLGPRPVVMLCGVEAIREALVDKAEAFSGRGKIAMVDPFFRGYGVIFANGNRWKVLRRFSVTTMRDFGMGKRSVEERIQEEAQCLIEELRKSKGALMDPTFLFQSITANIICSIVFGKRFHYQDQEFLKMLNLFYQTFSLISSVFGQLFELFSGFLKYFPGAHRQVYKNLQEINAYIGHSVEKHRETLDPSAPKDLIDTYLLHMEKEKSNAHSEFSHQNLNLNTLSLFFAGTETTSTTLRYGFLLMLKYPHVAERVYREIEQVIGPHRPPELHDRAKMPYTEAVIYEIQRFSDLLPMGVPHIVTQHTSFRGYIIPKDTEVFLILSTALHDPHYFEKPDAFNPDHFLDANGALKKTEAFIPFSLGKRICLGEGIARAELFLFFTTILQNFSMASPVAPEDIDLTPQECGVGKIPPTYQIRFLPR

5'-nucleotidase [19] = molecular target: T6, 5'-nucleotidase (Homo sapiens, UniProt P21589); experiment: Inhibition of human CD73 expressed in CHO cells using AMP as substrate preincubated for 60 mins followed by substrate addition and measured after 60 mins by PiColorLock gold reagent based colorimetric assay; assay type: cell-based
T6 sequence (P21589 whole entry): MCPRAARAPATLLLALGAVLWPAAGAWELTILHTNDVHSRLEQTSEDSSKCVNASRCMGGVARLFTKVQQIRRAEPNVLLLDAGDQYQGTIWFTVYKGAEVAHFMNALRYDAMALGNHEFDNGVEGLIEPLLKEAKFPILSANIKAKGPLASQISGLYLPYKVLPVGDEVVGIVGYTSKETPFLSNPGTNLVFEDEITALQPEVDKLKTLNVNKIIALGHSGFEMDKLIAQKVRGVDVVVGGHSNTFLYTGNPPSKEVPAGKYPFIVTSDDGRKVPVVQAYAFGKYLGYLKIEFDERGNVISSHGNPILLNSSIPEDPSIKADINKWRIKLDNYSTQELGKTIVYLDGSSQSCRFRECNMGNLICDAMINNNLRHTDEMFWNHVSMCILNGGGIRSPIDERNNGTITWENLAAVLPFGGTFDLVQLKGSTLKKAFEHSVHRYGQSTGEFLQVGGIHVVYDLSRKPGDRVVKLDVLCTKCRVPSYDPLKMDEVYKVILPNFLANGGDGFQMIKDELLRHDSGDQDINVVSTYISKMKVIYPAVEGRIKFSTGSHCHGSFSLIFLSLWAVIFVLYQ

5'-nucleotidase [20] = molecular target: T6, 5'-nucleotidase; experiment: Inhibition of CD73 in human PBMC using AMP as substrate preincubated for 60 mins followed by substrate addition and measured after 2.5 hrs by PiColorLock gold reagent based colorimetric assay; assay type: tissue-based
5'-nucleotidase [21] = molecular target: T6, 5'-nucleotidase; experiment: Inhibition of CD73 in human CD8-positive T cells using AMP as substrate preincubated for 60 mins followed by substrate addition and measured after 2.5 hrs by PiColorLock gold reagent based colorimetric assay; assay type: cell-based, CD8-positive T cell

**Q.** Which Vd [1] does the source give for `C[C@H](Nc1cc(Cl)nc2c1cnn2[C@@H]1O[C@H](COP(=O)(O)CP(=O)(O)O)[C@@H](O)[C@H]1O)c1ccccc1F` here?
**A.** Its Vd is 1.3 L/kg.

**Q.** What about the Stabilty [2] of the same molecule?
**A.** Its Stabilty is “Stable”.

**Q.** And the Vd [3]?
**A.** The Vd was 0.12 L/kg.

**Q.** And the Cmax [4]?
**A.** The Cmax was 5170 ng/mL.

**Q.** And the INH (Cytochrome P450 2D6 [5])?
**A.** Its INH is > 100 µM.

**Q.** And the fraction unbound [6]?
**A.** The fraction unbound was 0.0059.

**Q.** And the TDI (Cytochrome P450 1A2 [7])?
**A.** The TDI was “Not Active”.

**Q.** What about the IC50 (Cytochrome P450 1A2 [8]) of the same molecule?
**A.** The IC50 was > 100 µM.

**Q.** And the IC50 [9]?
**A.** Its IC50 is > 10 µM.

**Q.** And the Stabilty [10]?
**A.** Its Stabilty is “Stable”.

**Q.** What about the TDI (Cytochrome P450 2D6 [11]) of the same molecule?
**A.** Its TDI is “Not Active”.

**Q.** What about the Activity [12] of the same molecule?
**A.** The Activity was “Non-Toxic”.

**Q.** What about the fraction unbound [13] of the same molecule?
**A.** The fraction unbound was 0.0017.

**Q.** And the INH (Cytochrome P450 2C9)?
**A.** Its INH is > 100 µM.

**Q.** What about the fraction unbound [14] of the same molecule?
**A.** Its fraction unbound is 0.0089.

**Q.** And the IC50 [15]?
**A.** The IC50 was > 10 µM.

**Q.** And the Vd [16]?
**A.** Its Vd is 6.38 L.

**Q.** What about the TDI (Cytochrome P450 3A4 [17]) of the same molecule?
**A.** The TDI was “Not Active”.

**Q.** What about the Activity (Cytochrome P450 3A4 [18]) of the same molecule?
**A.** Its Activity is “Not Active”.

**Q.** And the Activity (Cytochrome P450 2B6)?
**A.** Its Activity is “Not Active”.

**Q.** What does the source list for `C[C@H](Nc1cc(Cl)nc2c1cnn2[C@@H]1O[C@H](COP(=O)(O)CP(=O)(O)O)[C@@H](O)[C@H]1O)c1ccc(F)cc1`?
**A.** Vd [1]: 0.63 L/kg; Stabilty [2]: Stable; Vd [3]: 0.12 L/kg; fraction unbound [6]: 0.0034; Stabilty [10]: Stable; fraction unbound [13]: 0.0016; fraction unbound [14]: 0.0065; IC50 [15]: > 10 µM; IC50 (5'-nucleotidase [19]): 0.115 nM; IC50 (5'-nucleotidase [20]): 0.021 nM; IC50 (5'-nucleotidase [21]): 10 pM

**Q.** What does the source list for `C[C@H](Nc1nc(Cl)nc2c1cnn2[C@@H]1O[C@H](COP(=O)(O)CP(=O)(O)O)[C@@H](O)[C@H]1O)c1ccccc1`?
**A.** Vd [1]: 0.84 L/kg; Vd [3]: 0.12 L/kg; fraction unbound [6]: 0.002; fraction unbound [13]: 0.0095; fraction unbound [14]: 0.029; IC50 [15]: > 10 µM; IC50 (5'-nucleotidase [19]): 0.045 nM; IC50 (5'-nucleotidase [20]): 0.0085 nM; IC50 (5'-nucleotidase [21]): 2.7 pM
